Measurements published in patent US6015900A, “N-aminoalkylfluorenecarboxamides” (Neurogen Corporation, priority 1998, dated 2000).
Where a name gives a salt, the structure may show the parent alone. Read-outs that look alike come from different tables or passages of the source.

How the values were obtained:
D2 receptors = D2 receptors (Chlorocebus aethiops, UniProt P52702); experiment: biochemical; assay type: binding, African Green monkey
D3 receptors = D3 receptors (Chlorocebus aethiops, UniProt P52703); experiment: biochemical; assay type: binding, African Green monkey
Chain of D3 receptors (P52703 whole entry): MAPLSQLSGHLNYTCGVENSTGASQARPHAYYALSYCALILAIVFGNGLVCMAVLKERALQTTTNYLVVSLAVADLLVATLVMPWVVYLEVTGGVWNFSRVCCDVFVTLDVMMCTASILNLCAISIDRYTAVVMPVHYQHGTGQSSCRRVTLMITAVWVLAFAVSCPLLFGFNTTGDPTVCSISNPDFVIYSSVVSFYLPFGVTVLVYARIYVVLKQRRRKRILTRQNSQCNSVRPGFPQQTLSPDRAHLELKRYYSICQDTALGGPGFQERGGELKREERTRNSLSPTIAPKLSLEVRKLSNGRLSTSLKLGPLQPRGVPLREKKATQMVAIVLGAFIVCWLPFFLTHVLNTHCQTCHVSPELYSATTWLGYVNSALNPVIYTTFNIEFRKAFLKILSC

[1] = COS cells containing recombinant D2 receptors, 0.5 nM ^3 H-YM 09151-2, nonspecific binding with 1 mM spiperone, read-out: D2 Ki
[2] = COS cells containing recombinant D3 receptors, 0.5 nM ^3 H-YM 09151-2, nonspecific binding with 1 mM spiperone, read-out: D3 Ki

Chain of D2 receptors (P52702 whole entry): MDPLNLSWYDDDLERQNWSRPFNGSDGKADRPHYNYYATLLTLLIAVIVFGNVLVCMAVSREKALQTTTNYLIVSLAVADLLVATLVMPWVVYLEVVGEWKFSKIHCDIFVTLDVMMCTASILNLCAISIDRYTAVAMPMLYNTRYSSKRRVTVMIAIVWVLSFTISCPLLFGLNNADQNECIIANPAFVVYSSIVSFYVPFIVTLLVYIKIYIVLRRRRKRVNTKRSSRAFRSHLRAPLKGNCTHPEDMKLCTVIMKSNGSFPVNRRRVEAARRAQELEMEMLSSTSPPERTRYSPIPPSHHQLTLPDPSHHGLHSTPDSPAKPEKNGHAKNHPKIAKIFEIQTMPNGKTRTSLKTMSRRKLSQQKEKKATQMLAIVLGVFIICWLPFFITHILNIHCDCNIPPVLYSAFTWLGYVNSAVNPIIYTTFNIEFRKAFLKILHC

SMILES: O=C(NCCCCN1CCN(c2cccc(Cl)c2Cl)CC1)c1ccc2c(c1)Cc1ccccc1-2 [Compound 1, N-{4-[4-(2,3-dichlorophenyl)-1-piperazinyl]butyl}-9H-fluorene-2-carboxamidehydrochloride]
- Ki (D2 receptors): 729 nM
- Ki (D3 receptors): 3 nM

SMILES: O=C(NCCCCN1CCN(c2cccc3ccccc23)CC1)c1ccc2c(c1)Cc1ccccc1-2 [Compound 2, N-{4-[4-(1-Naphthyl)-1-piperazinyl]butyl}-9H-fluorene-2-carboxamide hydrochloride]
- Ki (D2 receptors; [1]): 150 nM
- Ki (D3 receptors; [2]): 1 nM

SMILES: O=C(NCCCCN1CCN(c2ccccc2Cl)CC1)c1ccc2c(c1)C(=O)c1ccccc1-2 [Compound 3, N-{4-[4-(2-Chlorophenyl)-1-piperazinyl]butyl}-9-oxo-fluorene-2-arboxamide hydrochloride]
- Ki (D2 receptors; [1]): 97 nM
- Ki (D3 receptors; [2]): 0.7 nM
